Source: US10695282B2, “Functionalized transition metal dichalcogenides and composition for antioxidation containing the same” (AMOREPACIFIC CORPORATION, priority 2017, dated 2020)
pIC50: −log10 of the molar value.

How the values were obtained:
[1] = Photostability of antioxidant activity under solar simulator (ABTS assay); format: physicochemical; settings: after 3 hours, FIG. 9B
[2] = ABTS assay, antioxidant activity of TMDs functionalized in aqueous solution; format: biochemical; settings: TMDs functionalized with PCL-b-PEO in aqueous solution; absorbance change at 734 nm after 12 hours; FIG. 9A; read-out: IC50 (ABTS radical scavenging)
Protocol: Specifically, the antioxidant activity of four types of TMDs (MoS2, WS2, MoSe2, and WSe2) functionalized with an amphiphilic block polymer compound in an aqueous solution and Trolox (vitamin E) were measured by an ABTS (2,2′-azino-bis-(3-ethylbenzothiazoline-6-sulfonic acid)) assay.
Specifically, 7 mM 2,2′-azino-bis-(3-ethylbenzothiazoline-6-sulfonic acid) (ABTS) and 2.45 mM potassium persulfate were mixed to make the final concentration and left in a dark place at room temperature for 24 hours. Then, the mixture was diluted with distilled water so that the absorbance value at 734 nm was […]. 100 μl of the sample of each concentration was added to 100 μl of the diluted ABTS radical solution, followed by mixing. After 12 hours, the change of absorbance was measured. The same amount of Trolox as a standard material was added for measurement.

- antioxidant activity remaining under light [1]: 50%
- pIC50 [2]: 4.93
SMILES: Cc1c(C)c2c(c(C)c1O)CCC(C)(C(=O)O)O2 (centres unmarked) [Trolox]
